Source: US5556847A, “Methods of effecting memory enhancement mediated by steroid sulfatase inhibitors” (Duquesne University of the Holy Ghost, priority 1994, dated 1996)
Where a name gives a salt, the structure may show the parent alone.

Assays:
[1] = tested on: scopolamine-induced amnesia; assay: passive avoidance paradigm, reversal of scopolamine-induced amnesia (crossover latency); format: in vivo, rats
Experimental: Male rats weighing between 80 and 100 grams were purchased from Hilltop Lab Animals Inc. (Scottdale, Pa.) and housed in hanging wire mesh cages in groups of three with water and rat chow available ad libitum. The room in which the animals were housed was controlled for both temperature and humidity, there was a standard 12 hour, light/dark cycle. To assess memory, the Gemini Avoidance System (San Diego Instruments) was utilized in a standard passive avoidance paradigm. Briefly, the avoidance apparatus consisted of a box (53×53×32 cm) with two compartments connected by an opening with a sliding door. The room in which the rat was placed was brightly lit, while the other room was dark. Initially, the animals were allowed to explore the apparatus and were then removed. During the memory acquisition trial, animals were placed in the light compartment. When an animal entered the dark compartment, the sliding door closed and a mild foot shock (1mA; 1 sec.) was delivered. The rat was then removed from the apparatus and returned to its cage. Twenty-four hours later the rat was again placed in the light side of the apparatus and the time latency to crossing to the dark room recorded. […] The acquisition of memory for the foot shock was assessed as an increased latency period before entering the dark room on the second day. Significant differences in crossover latency were determined by statistical analysis utilizing one-way analysis of a variance with a Dunnett's test post hoc. Significant differences between groups were interpreted as differences in memory acquisition resulting from the various treatments.
To determine the effect of DHEAS on memory, one hour before the acquisition trial […] of ten animals were injected intraperitoneally (IP) with one of the following several doses of DHEAS (5, 10, 20, 30, 50, 70 mg/Kg/ml dissolved saline) or saline. All animals in a given group were administered the same dosage. […] Twenty-four hours later the rats were again placed in the apparatus and the time delay before the animals entered the dark compartment was recorded.
Twenty-four hours later, crossover latency (the time delay before the rats crossed to the dark compartment) for the groups was determined.
(§1) In order to determine whether EMATE alone could enhance memory, four groups of rats (10 animals per group), were injected with EMATE (10 mg/Kg; IP), either four hours before the acquisition trial, or dally for 3, 10 or 15 days before the acquisition trial. Twenty-four hours following the acquisition trial crossover latency was determined. The dally dosage of EMATE was 10 mg/kg which inhibited the sulfatase enzyme for about three to four days.

[2] = tested on: steroid sulfatase; assay: inhibition of steroid sulfatase after dosing; format: in vivo
Experimental: as §1
Sulfatase inhibitor EMATE can effect the memory enhancement of peripherally administered DHEAS, a neurosteroid, by inhibiting the metabolism of DHEAS to DHEA. […] A single dose (10 mg/kg) can inhibit greater than 98% of sulfatase after 24 hours. After 10 days of treatment the sulfatase activity in the whole body (including liver, adrenal gland, ovary, uterus and brain) is inhibited. The administration of EMATE alone can alter the equilibrium between the endogenous sulfated and unsulfated forms of neurosteroids in such a way as to enhance memory.

Structure (SMILES)	crossover latency (maximum effect) ([1]; DHEAS 20 mg/Kg IP one hour before acquisition trial, scopolamine 1 mg/Kg IP, latency 24 hours later)	reversal of scopolamine-induced amnesia ([1]; DHEAS 5-70 mg/Kg IP one hour before acquisition trial, scopolamine 1 mg/Kg IP 30 minutes before, bell shaped dose response curve)	reversal of scopolamine-induced amnesia ([1]; EMATE alone 10 mg/Kg IP daily for 10 and 15 days before acquisition trial)	crossover latency ([1]; EMATE alone 10 mg/Kg IP daily for 10 days before acquisition trial)	crossover latency ([1]; EMATE alone 10 mg/Kg IP daily for 15 days before acquisition trial)	effect on crossover latency ([1]; EMATE alone, single dose 10 mg/Kg IP four hours before acquisition trial)	sulfatase activity in the whole body (including liver, adrenal gland, ovary, uterus and brain) ([2]; after 10 days of treatment)	duration of inhibition of the sulfatase enzyme ([2]; dosage 10 mg/kg)	kind of steroid sulfatase inhibition ([2]; in vivo)	inhibition of sulfatase ([2]; single dose 10 mg/kg, after 24 hours)
C[C@]12CC[C@H](OS(=O)(=O)O)CC1=CC[C@@H]1[C@@H]2CC[C@]2(C)C(=O)CC[C@@H]12 [DHEAS, dehydroepiandrosterone sulfate, reference compound]	299.4 ± 83.5 s	significant (p≤0.05), reversal of scopolamine-induced amnesia	–	–	–	–	–	–	–	–
C[C@]12CC[C@@H]3c4ccc(OS(N)(=O)=O)cc4CC[C@H]3[C@@H]1CCC2=O [EMATE, estrone - 3-sulfamate]	–	–	significant (p≤0.05) reversal of scopolamine-induced amnesia	263.1 ± 69.7 s	297.0 ± 88.7 s	failed to increase crossover latency	inhibited	about three to four	potent irreversible inhibitor	greater than 98%
